# The kinase profiling compilation of Christmann-Franck et al. (2016)
# Tests used:
# Assay in all cases: radiometric filter-binding kinase assay, Kinase HotSpot
# Settings in all cases: compound 0.5 µM; ATP 10 µM
# IKBKE (human) = IKBKE (human) (UniProt Q14164)
# PHKG2 (human) = PHKG2 (human) (UniProt P15735)
# HIPK2 (human) = HIPK2 (human) (UniProt Q9H2X6)
# PAK2 (human) = PAK2 (human) (UniProt Q13177)
# DYRK3 (human) = DYRK3 (human) (UniProt O43781)
# SGK3 (human) = SGK3 (human) (UniProt Q96BR1)
# MELK (human) = MELK (human) (UniProt Q14680)
# NTRK3 (human) = NTRK3 (human) (UniProt Q16288)
# LCK (human) = LCK (human) (UniProt P06239)
# ZAP70 (human) = ZAP70 (human) (UniProt P43403)
# GRK4 (human) = GRK4 (human) (UniProt P32298)
# CSK (human) = CSK (human) (UniProt P41240)
# MAPK14 (human) = MAPK14 (human) (UniProt Q16539)
# EPHA8 (human) = EPHA8 (human) (UniProt P29322)
# GRK6 (human) = GRK6 (human) (UniProt P43250)
# MAPK3 (human) = MAPK3 (human) (UniProt P27361)
# PAK7 (human) = PAK7 (human) (UniProt Q9P286)
# MAPK10 (human) = MAPK10 (human) (UniProt P53779)
# CDK5 CDK5R1 p25 (human) = CDK5 CDK5R1 p25 (human) (UniProt Q00535+Q15078)
# PBK (human) = PBK (human) (UniProt Q96KB5)
# CAMK1D (human) = CAMK1D (human) (UniProt Q8IU85)
# RPS6KA5 KD2 (human) = RPS6KA5 KD2 (human) (UniProt O75582)
# ALK (human) = ALK (human) (UniProt Q9UM73)
# DDR2 (human) = DDR2 (human) (UniProt Q16832)
# NEK9 (human) = NEK9 (human) (UniProt Q8TD19)
# NLK (human) = NLK (human) (UniProt Q9UBE8)
# STK3 (human) = STK3 (human) (UniProt Q13188)
# AKT2 (human) = AKT2 (human) (UniProt P31751)
# PRKD3 (human) = PRKD3 (human) (UniProt O94806)
# ACVRL1 (human) = ACVRL1 (human) (UniProt P37023)
# MAP3K9 (human) = MAP3K9 (human) (UniProt P80192)
# SRC (human) = SRC (human) (UniProt P12931)
# PRKCA (human) = PRKCA (human) (UniProt P17252)
# PLK1 (human) = PLK1 (human) (UniProt P53350)
# IGF1R (human) = IGF1R (human) (UniProt P08069)
# MARK2 (human) = MARK2 (human) (UniProt Q7KZI7)
# MLTK (human) = MLTK (human) (UniProt Q9NYL2)
# EPHA3 (human) = EPHA3 (human) (UniProt P29320)
# CLK1 (human) = CLK1 (human) (UniProt P49759)
# PAK4 (human) = PAK4 (human) (UniProt O96013)
# PRKD2 (human) = PRKD2 (human) (UniProt Q9BZL6)
# PHKG1 (human) = PHKG1 (human) (UniProt Q16816)
# DYRK3 (human), sequence (O43781 whole entry, looked up): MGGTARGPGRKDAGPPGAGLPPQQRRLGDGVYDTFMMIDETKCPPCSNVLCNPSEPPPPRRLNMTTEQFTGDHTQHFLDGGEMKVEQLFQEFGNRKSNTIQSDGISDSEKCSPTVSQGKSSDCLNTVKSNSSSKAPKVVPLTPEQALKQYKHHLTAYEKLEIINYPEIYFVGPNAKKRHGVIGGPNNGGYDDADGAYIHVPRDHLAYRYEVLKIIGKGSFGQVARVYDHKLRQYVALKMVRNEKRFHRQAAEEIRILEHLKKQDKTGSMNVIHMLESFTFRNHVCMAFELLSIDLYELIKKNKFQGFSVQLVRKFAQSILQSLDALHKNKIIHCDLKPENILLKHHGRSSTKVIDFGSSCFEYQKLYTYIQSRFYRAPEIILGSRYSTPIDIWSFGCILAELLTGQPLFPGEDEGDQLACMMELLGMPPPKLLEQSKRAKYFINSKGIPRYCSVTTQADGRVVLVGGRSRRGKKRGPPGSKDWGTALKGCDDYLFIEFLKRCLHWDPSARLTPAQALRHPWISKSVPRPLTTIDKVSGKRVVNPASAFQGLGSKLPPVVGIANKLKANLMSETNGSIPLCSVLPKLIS
# EPHA3 (human), sequence (P29320 whole entry, looked up): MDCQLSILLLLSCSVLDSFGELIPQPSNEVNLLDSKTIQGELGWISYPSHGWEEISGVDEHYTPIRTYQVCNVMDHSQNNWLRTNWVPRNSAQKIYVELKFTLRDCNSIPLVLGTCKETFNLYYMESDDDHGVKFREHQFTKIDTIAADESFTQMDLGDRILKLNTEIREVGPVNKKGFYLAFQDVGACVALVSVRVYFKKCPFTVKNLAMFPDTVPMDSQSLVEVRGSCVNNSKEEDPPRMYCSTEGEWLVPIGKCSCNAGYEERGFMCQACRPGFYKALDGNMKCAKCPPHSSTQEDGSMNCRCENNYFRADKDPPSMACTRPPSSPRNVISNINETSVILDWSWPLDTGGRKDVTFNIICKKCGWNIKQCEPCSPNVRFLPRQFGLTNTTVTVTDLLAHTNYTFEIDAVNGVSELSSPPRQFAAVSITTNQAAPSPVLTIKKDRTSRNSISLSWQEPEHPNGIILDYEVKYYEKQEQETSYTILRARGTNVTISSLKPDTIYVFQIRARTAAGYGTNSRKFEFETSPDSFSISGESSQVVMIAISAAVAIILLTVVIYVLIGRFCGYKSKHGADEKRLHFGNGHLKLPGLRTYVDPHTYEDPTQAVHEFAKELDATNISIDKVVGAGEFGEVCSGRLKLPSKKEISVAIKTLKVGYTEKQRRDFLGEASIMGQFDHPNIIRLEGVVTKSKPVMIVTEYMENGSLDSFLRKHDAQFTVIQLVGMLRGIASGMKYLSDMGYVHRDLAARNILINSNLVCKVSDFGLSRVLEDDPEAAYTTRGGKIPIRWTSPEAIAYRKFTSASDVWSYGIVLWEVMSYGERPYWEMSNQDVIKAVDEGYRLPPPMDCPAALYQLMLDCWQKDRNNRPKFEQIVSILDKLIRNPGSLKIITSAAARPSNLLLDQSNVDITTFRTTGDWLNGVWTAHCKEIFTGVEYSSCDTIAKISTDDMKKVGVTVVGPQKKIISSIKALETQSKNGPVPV
# PAK7 (human), sequence (Q9P286 whole entry, looked up): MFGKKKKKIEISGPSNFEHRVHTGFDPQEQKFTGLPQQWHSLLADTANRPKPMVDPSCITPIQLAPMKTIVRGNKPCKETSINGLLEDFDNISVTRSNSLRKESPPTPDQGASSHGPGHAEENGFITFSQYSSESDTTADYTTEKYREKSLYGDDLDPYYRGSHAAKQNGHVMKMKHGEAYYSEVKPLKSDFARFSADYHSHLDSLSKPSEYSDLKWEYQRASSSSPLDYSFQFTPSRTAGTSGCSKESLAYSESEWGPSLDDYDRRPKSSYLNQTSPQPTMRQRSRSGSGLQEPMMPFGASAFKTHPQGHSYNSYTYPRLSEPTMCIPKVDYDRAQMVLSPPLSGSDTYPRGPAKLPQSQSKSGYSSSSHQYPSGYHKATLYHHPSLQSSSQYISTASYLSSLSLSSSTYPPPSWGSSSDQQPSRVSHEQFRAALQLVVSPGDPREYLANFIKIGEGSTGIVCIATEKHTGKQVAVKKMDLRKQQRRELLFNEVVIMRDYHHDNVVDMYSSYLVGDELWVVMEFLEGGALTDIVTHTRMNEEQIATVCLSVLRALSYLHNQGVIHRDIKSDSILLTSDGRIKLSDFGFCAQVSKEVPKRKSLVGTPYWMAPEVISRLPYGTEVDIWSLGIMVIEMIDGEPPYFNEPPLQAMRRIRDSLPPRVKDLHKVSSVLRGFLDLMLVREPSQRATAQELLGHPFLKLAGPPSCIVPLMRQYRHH
# DDR2 (human), sequence (Q16832 whole entry, looked up): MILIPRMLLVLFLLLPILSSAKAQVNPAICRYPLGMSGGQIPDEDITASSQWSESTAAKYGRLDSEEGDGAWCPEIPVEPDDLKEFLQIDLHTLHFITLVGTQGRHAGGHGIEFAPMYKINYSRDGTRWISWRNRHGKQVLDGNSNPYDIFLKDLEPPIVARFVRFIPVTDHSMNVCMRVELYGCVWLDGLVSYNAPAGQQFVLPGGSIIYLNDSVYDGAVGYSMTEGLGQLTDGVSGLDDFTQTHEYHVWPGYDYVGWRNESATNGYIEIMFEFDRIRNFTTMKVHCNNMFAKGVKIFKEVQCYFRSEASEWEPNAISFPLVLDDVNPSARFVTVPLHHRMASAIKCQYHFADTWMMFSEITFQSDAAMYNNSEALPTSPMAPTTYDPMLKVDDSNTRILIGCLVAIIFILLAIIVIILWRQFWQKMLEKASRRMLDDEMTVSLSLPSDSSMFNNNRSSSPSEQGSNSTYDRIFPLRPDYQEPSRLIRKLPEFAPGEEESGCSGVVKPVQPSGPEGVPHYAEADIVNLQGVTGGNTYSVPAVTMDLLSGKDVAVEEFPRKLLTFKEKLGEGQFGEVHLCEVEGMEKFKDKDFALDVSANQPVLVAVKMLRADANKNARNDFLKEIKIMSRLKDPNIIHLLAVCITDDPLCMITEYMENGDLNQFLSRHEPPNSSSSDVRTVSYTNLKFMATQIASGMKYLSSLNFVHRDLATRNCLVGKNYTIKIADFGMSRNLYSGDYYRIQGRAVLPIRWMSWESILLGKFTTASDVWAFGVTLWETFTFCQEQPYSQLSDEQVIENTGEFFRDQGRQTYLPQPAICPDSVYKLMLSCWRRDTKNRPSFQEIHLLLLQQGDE
# STK3 (human), sequence (Q13188 whole entry, looked up): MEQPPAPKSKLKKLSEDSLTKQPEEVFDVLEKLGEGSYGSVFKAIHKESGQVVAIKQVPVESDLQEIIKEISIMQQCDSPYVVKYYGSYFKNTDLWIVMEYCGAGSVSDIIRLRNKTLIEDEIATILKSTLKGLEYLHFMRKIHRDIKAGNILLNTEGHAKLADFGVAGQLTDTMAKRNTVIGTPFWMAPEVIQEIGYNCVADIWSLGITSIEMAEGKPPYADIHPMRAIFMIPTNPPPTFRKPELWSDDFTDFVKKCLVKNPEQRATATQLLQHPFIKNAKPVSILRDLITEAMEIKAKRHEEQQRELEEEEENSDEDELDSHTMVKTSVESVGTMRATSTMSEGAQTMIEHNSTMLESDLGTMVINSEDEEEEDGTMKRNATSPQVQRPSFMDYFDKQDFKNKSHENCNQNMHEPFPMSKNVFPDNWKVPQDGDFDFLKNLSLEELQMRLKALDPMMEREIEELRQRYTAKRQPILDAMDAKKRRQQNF
# SGK3 (human), sequence (Q96BR1 whole entry, looked up): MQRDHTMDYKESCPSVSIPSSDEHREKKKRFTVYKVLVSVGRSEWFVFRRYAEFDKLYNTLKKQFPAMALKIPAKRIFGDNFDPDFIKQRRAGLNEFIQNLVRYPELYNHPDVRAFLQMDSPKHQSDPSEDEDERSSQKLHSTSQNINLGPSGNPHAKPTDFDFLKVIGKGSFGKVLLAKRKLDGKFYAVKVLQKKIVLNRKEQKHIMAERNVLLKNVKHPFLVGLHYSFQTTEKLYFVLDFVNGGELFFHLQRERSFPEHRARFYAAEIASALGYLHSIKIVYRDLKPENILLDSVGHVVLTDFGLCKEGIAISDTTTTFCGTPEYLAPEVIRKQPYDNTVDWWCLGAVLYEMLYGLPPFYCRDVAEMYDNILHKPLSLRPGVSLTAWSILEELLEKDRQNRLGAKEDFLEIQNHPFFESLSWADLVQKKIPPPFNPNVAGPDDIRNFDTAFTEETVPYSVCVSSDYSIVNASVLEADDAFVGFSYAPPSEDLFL
# PBK (human), sequence (Q96KB5 whole entry, looked up): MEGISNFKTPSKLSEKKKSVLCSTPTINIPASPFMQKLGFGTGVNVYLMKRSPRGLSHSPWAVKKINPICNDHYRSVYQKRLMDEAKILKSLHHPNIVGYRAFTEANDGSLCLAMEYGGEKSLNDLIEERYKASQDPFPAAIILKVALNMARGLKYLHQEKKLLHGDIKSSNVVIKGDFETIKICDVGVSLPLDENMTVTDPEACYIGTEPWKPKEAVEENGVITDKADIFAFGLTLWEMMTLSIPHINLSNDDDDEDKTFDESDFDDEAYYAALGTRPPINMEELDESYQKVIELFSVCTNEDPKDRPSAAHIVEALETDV
# CLK1 (human), sequence (P49759 whole entry, looked up): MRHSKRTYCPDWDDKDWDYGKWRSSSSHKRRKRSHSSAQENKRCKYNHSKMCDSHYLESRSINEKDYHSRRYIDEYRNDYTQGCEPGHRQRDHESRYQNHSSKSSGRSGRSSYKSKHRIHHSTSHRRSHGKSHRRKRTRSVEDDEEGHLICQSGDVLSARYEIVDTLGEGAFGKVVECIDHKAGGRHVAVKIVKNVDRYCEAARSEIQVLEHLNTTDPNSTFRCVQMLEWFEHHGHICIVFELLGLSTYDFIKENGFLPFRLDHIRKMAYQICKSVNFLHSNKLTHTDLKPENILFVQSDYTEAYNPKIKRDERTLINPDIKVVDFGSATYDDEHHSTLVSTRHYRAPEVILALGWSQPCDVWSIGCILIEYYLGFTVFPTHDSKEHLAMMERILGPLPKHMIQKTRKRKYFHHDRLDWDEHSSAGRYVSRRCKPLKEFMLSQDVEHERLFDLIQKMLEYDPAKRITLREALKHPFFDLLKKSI
compound,measurement,setting,value
CS(=O)(=O)CCNCc1ccc(-c2ccc3ncnc(Nc4ccc(OCc5cccc(F)c5)c(Cl)c4)c3c2)o1,residual activity,IKBKE (human),94.9%
same,residual activity,PHKG2 (human),99.5%
same,residual activity,HIPK2 (human),104%
same,residual activity,PAK2 (human),102%
same,residual activity,DYRK3 (human),90.2%
same,residual activity,SGK3 (human),102%
same,residual activity,MELK (human),88.5%
same,residual activity,NTRK3 (human),103%
same,residual activity,LCK (human),94.2%
same,residual activity,ZAP70 (human),92.5%
same,residual activity,GRK4 (human),90.3%
same,residual activity,CSK (human),106%
same,residual activity,MAPK14 (human),101%
same,residual activity,EPHA8 (human),99.5%
same,residual activity,GRK6 (human),101%
same,residual activity,MAPK3 (human),94.8%
same,residual activity,PAK7 (human),98.5%
same,residual activity,MAPK10 (human),100%
same,residual activity,CDK5 CDK5R1 p25 (human),90.4%
same,residual activity,PBK (human),105%
same,residual activity,CAMK1D (human),104%
same,residual activity,RPS6KA5 KD2 (human),98.3%
same,residual activity,ALK (human),104%
same,residual activity,DDR2 (human),107%
same,residual activity,NEK9 (human),100%
same,residual activity,NLK (human),108%
same,residual activity,STK3 (human),93.7%
same,residual activity,AKT2 (human),105%
same,residual activity,PRKD3 (human),88.6%
same,residual activity,ACVRL1 (human),105%
same,residual activity,MAP3K9 (human),112%
same,residual activity,SRC (human),102%
same,residual activity,PRKCA (human),83%
same,residual activity,PLK1 (human),99%
same,residual activity,IGF1R (human),87.4%
same,residual activity,MARK2 (human),137%
same,residual activity,MLTK (human),96.7%
same,residual activity,EPHA3 (human),98.2%
same,residual activity,CLK1 (human),107%
same,residual activity,PAK4 (human),89.9%
same,residual activity,PRKD2 (human),86.4%
same,residual activity,PHKG1 (human),95.7%
COc1cc2ncnc(Nc3ccc(Oc4ccccc4)cc3)c2cc1OC,residual activity,IKBKE (human),101%
same,residual activity,PHKG2 (human),100%
same,residual activity,HIPK2 (human),94.8%
same,residual activity,PAK2 (human),78.7%
same,residual activity,DYRK3 (human),103%
same,residual activity,SGK3 (human),101%
same,residual activity,MELK (human),101%
same,residual activity,NTRK3 (human),99.7%
same,residual activity,LCK (human),4.72%
same,residual activity,ZAP70 (human),97%
same,residual activity,GRK4 (human),97.1%
same,residual activity,CSK (human),18.8%
same,residual activity,MAPK14 (human),103%
same,residual activity,EPHA8 (human),97.4%
same,residual activity,GRK6 (human),99.6%
same,residual activity,MAPK3 (human),105%
same,residual activity,PAK7 (human),103%
same,residual activity,MAPK10 (human),103%
same,residual activity,CDK5 CDK5R1 p25 (human),88.8%
same,residual activity,PBK (human),92.6%
same,residual activity,CAMK1D (human),99.7%
same,residual activity,RPS6KA5 KD2 (human),106%
same,residual activity,ALK (human),109%
same,residual activity,DDR2 (human),97.9%
same,residual activity,NEK9 (human),97.8%
same,residual activity,NLK (human),100%
same,residual activity,STK3 (human),121%
same,residual activity,AKT2 (human),99.4%
same,residual activity,PRKD3 (human),95.8%
same,residual activity,ACVRL1 (human),100%
same,residual activity,MAP3K9 (human),57.7%
same,residual activity,SRC (human),82.8%
same,residual activity,PRKCA (human),101%
same,residual activity,PLK1 (human),96.4%
same,residual activity,IGF1R (human),102%
same,residual activity,MARK2 (human),95.3%
same,residual activity,MLTK (human),95.2%
same,residual activity,EPHA3 (human),101%
same,residual activity,CLK1 (human),100%
same,residual activity,PAK4 (human),98.3%
same,residual activity,PRKD2 (human),100%
same,residual activity,PHKG1 (human),91.8%
O=C(c1cc2cc(O)ccc2[nH]1)c1cc2cc(O)ccc2[nH]1,residual activity,IKBKE (human),81.6%
same,residual activity,PHKG2 (human),105%
same,residual activity,HIPK2 (human),102%
same,residual activity,PAK2 (human),97%
same,residual activity,DYRK3 (human),115%
same,residual activity,SGK3 (human),113%
same,residual activity,MELK (human),49.2%
same,residual activity,NTRK3 (human),13.4%
same,residual activity,LCK (human),52%
same,residual activity,ZAP70 (human),101%
same,residual activity,GRK4 (human),103%
same,residual activity,CSK (human),106%
same,residual activity,MAPK14 (human),103%
same,residual activity,EPHA8 (human),92.9%
same,residual activity,GRK6 (human),102%
same,residual activity,MAPK3 (human),107%
same,residual activity,PAK7 (human),85.3%
same,residual activity,MAPK10 (human),91.6%
same,residual activity,CDK5 CDK5R1 p25 (human),52.6%
same,residual activity,PBK (human),100%
same,residual activity,CAMK1D (human),91.5%
same,residual activity,RPS6KA5 KD2 (human),96.1%
same,residual activity,ALK (human),97%
same,residual activity,DDR2 (human),95.7%
same,residual activity,NEK9 (human),93.6%
same,residual activity,NLK (human),83.2%
same,residual activity,STK3 (human),41.4%
same,residual activity,AKT2 (human),104%
same,residual activity,PRKD3 (human),54.9%
same,residual activity,ACVRL1 (human),98.4%
same,residual activity,MAP3K9 (human),42.6%
same,residual activity,SRC (human),36.4%
same,residual activity,PRKCA (human),84.1%
same,residual activity,PLK1 (human),101%
same,residual activity,IGF1R (human),103%
same,residual activity,MARK2 (human),59.9%
same,residual activity,MLTK (human),34.3%
same,residual activity,EPHA3 (human),101%
same,residual activity,CLK1 (human),82.1%
same,residual activity,PAK4 (human),111%
same,residual activity,PRKD2 (human),71.7%
same,residual activity,PHKG1 (human),72.1%
O=C1NC(=O)c2c1c1c3ccccc3[nH]c1n1cncc21,residual activity,IKBKE (human),103%
same,residual activity,PHKG2 (human),108%
same,residual activity,HIPK2 (human),94.4%
same,residual activity,PAK2 (human),99%
same,residual activity,DYRK3 (human),85.8%
same,residual activity,SGK3 (human),111%
same,residual activity,MELK (human),32.6%
same,residual activity,NTRK3 (human),26.1%
same,residual activity,LCK (human),87.1%
same,residual activity,ZAP70 (human),87.8%
same,residual activity,GRK4 (human),101%
same,residual activity,CSK (human),83.3%
same,residual activity,MAPK14 (human),101%
same,residual activity,EPHA8 (human),97.5%
same,residual activity,GRK6 (human),82.1%
same,residual activity,MAPK3 (human),87.8%
same,residual activity,PAK7 (human),80%
same,residual activity,MAPK10 (human),96%
same,residual activity,CDK5 CDK5R1 p25 (human),89.4%
same,residual activity,PBK (human),72.4%
same,residual activity,CAMK1D (human),91.9%
same,residual activity,RPS6KA5 KD2 (human),87.6%
same,residual activity,ALK (human),84.6%
same,residual activity,DDR2 (human),96.5%
same,residual activity,NEK9 (human),77.4%
same,residual activity,NLK (human),87.9%
same,residual activity,STK3 (human),41%
same,residual activity,AKT2 (human),121%
same,residual activity,PRKD3 (human),47.7%
same,residual activity,ACVRL1 (human),109%
same,residual activity,MAP3K9 (human),72.5%
same,residual activity,SRC (human),88.4%
same,residual activity,PRKCA (human),66.5%
same,residual activity,PLK1 (human),50.8%
same,residual activity,IGF1R (human),76.8%
same,residual activity,MARK2 (human),34.7%
same,residual activity,MLTK (human),78.7%
same,residual activity,EPHA3 (human),105%
same,residual activity,CLK1 (human),84%
same,residual activity,PAK4 (human),97.1%
same,residual activity,PRKD2 (human),69.4%
same,residual activity,PHKG1 (human),70.8%
